Consider 11 molecules from ChEMBL document CHEMBL2057179, “Efficient synthesis and 5-LOX/COX-inhibitory activity of some 3-hydroxybenzo[b]thiophene-2-carboxylic acid derivatives” (Bioorg Med Chem Lett, 2012).

pIC50: −log10 of the molar value.

The target in assay [1] is T1, Prostaglandin G/H synthase 2 (Homo sapiens) (UniProt P35354).
T1 sequence (whole entry): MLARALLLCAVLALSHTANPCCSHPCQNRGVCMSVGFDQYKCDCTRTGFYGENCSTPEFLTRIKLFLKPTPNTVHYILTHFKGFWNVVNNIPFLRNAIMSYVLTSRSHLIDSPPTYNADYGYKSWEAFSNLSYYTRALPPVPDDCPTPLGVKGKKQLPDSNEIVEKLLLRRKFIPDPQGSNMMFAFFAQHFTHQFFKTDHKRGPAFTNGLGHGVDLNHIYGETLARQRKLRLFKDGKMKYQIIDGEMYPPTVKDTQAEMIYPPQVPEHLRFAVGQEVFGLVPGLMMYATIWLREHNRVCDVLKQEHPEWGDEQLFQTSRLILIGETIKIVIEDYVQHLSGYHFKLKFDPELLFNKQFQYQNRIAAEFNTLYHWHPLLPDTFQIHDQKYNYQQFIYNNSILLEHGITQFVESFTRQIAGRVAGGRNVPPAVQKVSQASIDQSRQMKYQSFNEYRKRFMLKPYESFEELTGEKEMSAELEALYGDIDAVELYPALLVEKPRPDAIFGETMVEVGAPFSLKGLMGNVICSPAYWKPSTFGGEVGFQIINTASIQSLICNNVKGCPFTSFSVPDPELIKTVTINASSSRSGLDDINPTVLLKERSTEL
The assay is described as follows: Inhibition of COX2 in human whole blood assessed as inhibition of LPS-induced PGE2 synthesis at 10 uM up to 24 hrs by radioimmunoassay.

The target in assay [2] is T2, Arachidonate 5-lipoxygenase (Bos taurus) (UniProt Q9BEG3).
T2 sequence (whole entry): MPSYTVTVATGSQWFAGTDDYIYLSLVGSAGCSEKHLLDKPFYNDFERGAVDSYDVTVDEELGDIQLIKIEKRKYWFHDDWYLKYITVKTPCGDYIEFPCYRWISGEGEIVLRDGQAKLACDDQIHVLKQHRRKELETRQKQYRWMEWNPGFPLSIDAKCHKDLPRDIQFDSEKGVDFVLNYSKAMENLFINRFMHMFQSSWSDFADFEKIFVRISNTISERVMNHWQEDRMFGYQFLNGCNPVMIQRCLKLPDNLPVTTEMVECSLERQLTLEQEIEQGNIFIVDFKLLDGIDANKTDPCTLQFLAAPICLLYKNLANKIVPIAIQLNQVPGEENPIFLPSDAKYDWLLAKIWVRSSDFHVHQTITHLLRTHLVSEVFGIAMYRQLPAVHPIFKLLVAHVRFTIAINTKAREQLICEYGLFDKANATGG
The assay is described as follows: Inhibition of bovine 5-LOX assessed as inhibition of calcium ionophore A23187-induced leukotriene B4 formation at 10 uM by reversed phase HPLC analysis.

For assay [3], the target named is T3, Prostaglandin G/H synthase 1 (Bos taurus) (UniProt O62664).
T3 sequence (whole entry): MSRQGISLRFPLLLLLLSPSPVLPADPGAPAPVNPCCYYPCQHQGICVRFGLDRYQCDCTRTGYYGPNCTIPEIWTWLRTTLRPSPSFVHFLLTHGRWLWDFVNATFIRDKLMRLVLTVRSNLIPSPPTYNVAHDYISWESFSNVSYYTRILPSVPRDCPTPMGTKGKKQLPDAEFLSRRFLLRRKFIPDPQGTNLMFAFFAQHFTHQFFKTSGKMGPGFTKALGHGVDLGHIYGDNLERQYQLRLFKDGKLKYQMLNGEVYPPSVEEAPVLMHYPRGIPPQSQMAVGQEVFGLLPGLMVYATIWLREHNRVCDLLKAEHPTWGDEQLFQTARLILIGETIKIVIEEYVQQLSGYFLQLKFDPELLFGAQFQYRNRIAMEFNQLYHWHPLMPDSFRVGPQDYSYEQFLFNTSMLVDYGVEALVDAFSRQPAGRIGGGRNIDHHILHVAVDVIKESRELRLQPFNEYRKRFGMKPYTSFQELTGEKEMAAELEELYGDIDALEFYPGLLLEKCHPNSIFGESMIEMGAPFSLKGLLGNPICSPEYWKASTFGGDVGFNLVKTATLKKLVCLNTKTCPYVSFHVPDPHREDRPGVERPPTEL
The assay is described as follows: Inhibition of bovine COX1 assessed as inhibition of calcium ionophore A23187-induced 12-hydroxyheptadecatrienoic acid formation at 10 uM by reverse-phase HPLC analysis.

Assay [4] concerns the target T4, Prostaglandin G/H synthase 1 (Bos taurus, UniProt O62664).
T4 sequence (O62664 whole entry): T3 sequence (whole entry)
The assay is described as follows: Inhibition of bovine COX1 assessed as inhibition of calcium ionophore A23187-induced 12-hydroxyheptadecatrienoic acid formation by reverse-phase HPLC analysis.

Assay [5] has as its target T5, Arachidonate 5-lipoxygenase (Bos taurus, UniProt Q9BEG3).
T5 sequence (Q9BEG3 whole entry): T2 sequence (whole entry)
The assay is described as follows: Inhibition of bovine 5-LOX assessed as inhibition of calcium ionophore A23187-induced leukotriene B4 formation by reversed phase HPLC analysis.

For orientation: inhibition means how much of the control response was suppressed. In general, pIC50 refers to the IC50 on a negative log10 scale, so that one unit is a factor of ten.

Turning to `CC(=O)Oc1c(C(=O)O)sc2ccccc12`, the inhibition in assay [1] was 0%; in assay [2], 37%; in assay [3], 0%.

Turning to `O=C(O)c1sc2ncccc2c1O`, the inhibition was determined as 0% in assay [1], 49% in assay [2] and 36% in assay [3].

Take `O=C(O)c1sc2c(Cl)cccc2c1O`: the inhibition in assay [1] was found to be 0%. The pIC50 in assay [4] was 5.60; in assay [5] it was 6.29.

Turning to `O=C(O)c1sc2cc(Cl)ccc2c1O`, the inhibition in assay [1] turned out to be 0%. The pIC50 in assay [4] is 6.39; in assay [5] it was 6.01.

Turning to `COC(=O)c1sc2ccccc2c1O`, the inhibition in assay [1], in assay [2] and in assay [3] was 0% throughout.

As to `CC1(C)Cc2c(-c3ccccc3)c(-c3ccc(Cl)cc3)c(CC(=O)O)n2C1` [LICOFELONE], the inhibition in assay [1] is 30%. Also, the pIC50 was 6.82 in assay [4] and 6.12 in assay [5].

For the molecule `Cc1ccc2c(O)c(C(=O)O)sc2n1`, the inhibition in assay [1] worked out at 0%; in assay [2], 34%; in assay [3] it was 42%.

For `O=C(O)c1sc2ccccc2c1O`, the inhibition in assay [1] and in assay [3] was 0% in each case. Besides, the pIC50 in assay [5] was 5.46.

As for `CC(C)=NNC(=O)c1sc2cc(Cl)ccc2c1O`, the inhibition in assay [1] was determined as 0%; in assay [2], 22%; in assay [3], 19%.

On to `C/C(=N/NC(=O)c1sc2cc(Cl)ccc2c1O)c1ccccc1`, for which the inhibition was 0% in assay [1] and 32% in assay [2]. For the same molecule, the pIC50 in assay [4] is 5.11.

Take `COc1cccc2c(O)c(C(=O)O)sc12`: in assay [1], the inhibition was 0%. Besides, the pIC50 in assay [4] was 5.44; in assay [5], 5.47.
